Experimental data: patent publication US11459355B2, “Peptides having octopus octopressin activity and use thereof” (NATIONAL MARINE BIODIVERSITY INSTITUTE OF KOREA, priority 2018, dated 2022)

Tested on: Octopus minor
Experiment: Analysis of bioactivity of octopressin peptide: behavior change of adult Octopus minor after injection
Type: in vivo
Procedure: Peptides satisfying the octopressin amino acid sequence and modification predicted in Example 4 were ordered and purchased from a peptide synthesizing company and used. A dried peptide powder was dissolved in tertiary distilled water to a concentration of 10 mg/ml, diluted 100 times of artificial seawater filtered through a 0.20 μm filter to prepare an injection solution. A disposable syringe and a 26 gauge needle were used to poke at a 1 cm deep, and the injection solution was administered in the center between the body of the head of the adult Octopus minor. The injection volume was 100 microgram/kg by weight of the Octopus minor. As a control group, Octopus minor without injection (before injection), Octopus minor injected with filtered artificial seawater only, and Octopus minor injected with octopus-derived octopressin were used. […] In addition, these behavior changes began to appear 1 to 5 minutes after injection and lasted for 10 to 20 minutes, and the effect peaked between 5 to 10 minutes after injection and lasted for 10 to 20 minutes. […] Here, the used Octopus minor were discarded without reuse.

CFWTNCPVG (Octopressin_active peptide) [octopressin-activated peptide]
brooding-like behavior after injection (FIG. 6B) (Octopus minor injected with octopressin): behaviors similar to the brooding behaviors
behavior change after injection (repetitive bending and stretching of arms, social behaviors) (adult Octopus minor, injection between body and head, 100 microgram/kg, total of 12 Octopus minors, regardless of sex): had bioactivity
